Assay results from US5622948A, “Pyrrole pyridazine and pyridazinone anti-inflammatory agents” (Syntex (U.S.A.) Inc., priority 1994, dated 1997).
pIC50: −log10 of the molar value.

Assays:
COX II = molecular target: T1, COX II (Homo sapiens, UniProt P35354); test: radiometric assay, COX II inhibition (human recombinant, baculovirus expressed, partially purified); type: biochemical; design: A 1.8 Kb DNA fragment containing the coding region of human COX II was generated by PCR; made in house; host or cells: Sf9 insect cells, baculovirus; conditions: radiometric assay, human recombinant baculovirus expressed enzyme; read-out: COX II IC50 (Table 2)
T1 sequence (P35354 18-604): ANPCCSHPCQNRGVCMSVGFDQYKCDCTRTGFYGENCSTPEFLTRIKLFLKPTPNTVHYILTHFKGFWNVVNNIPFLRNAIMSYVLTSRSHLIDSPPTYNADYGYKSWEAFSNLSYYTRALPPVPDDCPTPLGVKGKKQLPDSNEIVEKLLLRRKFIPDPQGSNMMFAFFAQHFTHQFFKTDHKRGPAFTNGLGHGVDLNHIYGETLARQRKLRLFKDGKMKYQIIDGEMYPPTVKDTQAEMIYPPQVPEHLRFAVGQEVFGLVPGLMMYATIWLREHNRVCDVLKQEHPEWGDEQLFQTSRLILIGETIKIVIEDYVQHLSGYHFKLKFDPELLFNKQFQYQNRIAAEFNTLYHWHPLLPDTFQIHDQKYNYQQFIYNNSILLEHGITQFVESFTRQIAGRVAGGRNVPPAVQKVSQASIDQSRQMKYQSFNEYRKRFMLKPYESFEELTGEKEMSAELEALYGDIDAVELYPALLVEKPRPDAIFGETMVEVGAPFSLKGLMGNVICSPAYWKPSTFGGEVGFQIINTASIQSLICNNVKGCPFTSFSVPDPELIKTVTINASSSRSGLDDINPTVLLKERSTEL
Protocol: (§1) Human prostaglandin G/H synthase I and II ("COX I" and "COX II") were expressed in the baculovirus expression system and purified to high levels.
(§2) As described above, human recombinant COX I and COX II were cloned and expressed in a baculovirus system. Partially purified COX I and COX II enzymes were used for screening compounds for their ability to inhibit COX I and COX II activity, as described below.
(§3) Compound (16), in 2 μl DMSO, and control samples (carrier vehicles only) were mixed with COX I or COX II samples (e.g. fractions from the chromatography columns) in polypropylene tubes and preincubated with 2 mM phenol for 5 minutes and then with 1 μM hematin for an additional 5 minutes. The 150 μl reaction mixture consisted of 50 mM Tris --HCl, pH 7.9, 2 mM EDTA, 10% glycerol, 200 μM phenol, 1 μM hematin, 1-25 μl sample and 20 μM 1-[^14 C] arachidonate (80.000-100.000 cpm/tube). After 45 seconds at room temperature, the reaction was terminated by adding 200 μl of 2N HCl and 750 μl water. An aliquot (950 μl) of the reaction mixture was loaded onto a 1 ml C~ Sep-Pak (J. T. Baker, Phillipsburg, N.J.) which had been previously washed with 2-3 ml methanol and equilibrated with 5-6 ml distilled water. Oxygenated products were quantitatively eluted with 3 ml of acetonitrile, H2 O and acetic acid (50:50:0.1, v/v) and the radioactivity in the eluate determined in a scintillation counter.
(§4) Human recombinant 10 min incubation with Compound (16)
(§5) baculovirus 45 sec incubation with 20 μM AA
(§6) partially purified Separation of radioactive products

COX I = COX I (Homo sapiens, UniProt P23219); test: radiometric assay, COX I inhibition (human recombinant, baculovirus expressed, partially purified); type: biochemical; design: A 2 Kb fragment containing the coding region of COX I; made in house; host or cells: Sf9 insect cells, baculovirus (cDNA from Oxford Biomedical Research); conditions: radiometric assay, human recombinant baculovirus expressed enzyme; read-out: COX I IC50 (Table 2)
Protocol: as §1, §2, §3, §4, §5, §6

Chain of COX I (P23219 24-599): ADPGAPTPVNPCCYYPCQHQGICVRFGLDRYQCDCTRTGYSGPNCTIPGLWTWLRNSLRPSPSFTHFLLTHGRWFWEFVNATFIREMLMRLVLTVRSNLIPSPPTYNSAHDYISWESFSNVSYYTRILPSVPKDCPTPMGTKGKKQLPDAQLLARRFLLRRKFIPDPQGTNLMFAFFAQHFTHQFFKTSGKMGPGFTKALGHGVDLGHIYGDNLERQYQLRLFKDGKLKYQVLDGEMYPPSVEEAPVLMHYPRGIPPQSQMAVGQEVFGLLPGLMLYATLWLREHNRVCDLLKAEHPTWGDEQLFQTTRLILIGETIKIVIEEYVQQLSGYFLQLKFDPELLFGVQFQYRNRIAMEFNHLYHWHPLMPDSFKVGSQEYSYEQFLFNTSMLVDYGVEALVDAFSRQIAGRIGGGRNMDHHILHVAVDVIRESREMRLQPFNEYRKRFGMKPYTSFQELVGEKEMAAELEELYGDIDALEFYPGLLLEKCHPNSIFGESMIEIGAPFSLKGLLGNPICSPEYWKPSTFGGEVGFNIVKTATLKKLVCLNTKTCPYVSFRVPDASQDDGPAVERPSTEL

Row | Compound | pIC50 (COX II) | pIC50 (COX I)
1 | Cc1cc(C(C#N)c2ccc(=O)[nH]n2)n(C)c1C(=O)c1ccc(Cl)cc1 (stereo not shown) [Compound 9, [5-(4-chloro-benzoyl)-1,4-dimethyl-1H-pyrrol-2-yl]-(6-oxo-1,6-dihydro-pyridazin-3-yl)acetonitrile] | 6.20 | < 4.00
2 | Cc1cc(C(C)c2ccc(=O)[nH]n2)n(C)c1C(=O)c1ccc(Cl)cc1 (stereo not shown) [Compound 18, 6-{1-[5-(4-chloro-benzoyl)-1,4-dimethyl-1H-pyrrol-2-yl]-ethyl}-2H-pyridazin-3-one] | 5.82 | 4.82
3 | Cc1c(Cl)c(Cc2ccc(=O)[nH]n2)n(C)c1C(=O)c1ccc(Cl)cc1 [Compound 24, 6-[3-chloro-5-(4-chloro-benzoyl)-1,4-dimethyl-1H-pyrrol-2-ylmethyl]-2H-pyridazin-3-one] | 6.15 | 3.36
4 | Cc1c(Br)c(Cc2ccc(=O)[nH]n2)n(C)c1C(=O)c1ccc(Cl)cc1 [Compound 25, 6-[3-bromo-5-(4-chloro-benzoyl)-1,4-dimethyl-1H-pyrrol-2-ylmethyl]-2H-pyridazin-3-one] | 5.74 | 3.56
5 | Cc1ccc(C(=O)c2c(C)cc(Cc3ccc(=O)[nH]n3)n2C)cc1 [Compound 30, 6-[1,4-dimethyl-5-(4-methyl-benzoyl)-1H-pyrrol-2-ylmethyl]-2H-pyridazin-3-one] | 6.30 | 4.40
6 | COc1ccc(C(=O)c2c(C)cc(Cc3ccc(=O)[nH]n3)n2C)cc1 [Compound 31, 6-[1,4-dimethyl-5-(4-methoxy-benzoyl)-1-H-pyrrol-2-ylmethyl]-2H-pyridazin-3-one] | 6.70 | 4.46
7 | Cc1cc(Cc2ccc(=O)[nH]n2)n(C)c1C(=O)c1ccccc1 [Compound 32, 6-[5-benzoyl-1,4-dimethyl-1H-pyrrol-2-ylmethyl]-2H-pyridazin-3-one] | 5.82 | 4.57
8 | C=Cc1ccc(C(=O)c2c(C)cc(Cc3ccc(=O)[nH]n3)n2C)cc1 [Compound 33, 6-[1,4-dimethyl-5-(4-vinyl-benzoyl)-1H-pyrrol-2-ylmethyl]-2H-pyridazin-3-one] | 6.36 | 4.50
9 | Cc1cc(Cc2ccc(=O)[nH]n2)n(C)c1C(=O)c1ccc(Br)cc1 [Compound 35, 6-[5-(4-bromo-benzoyl)-1,4-dimethyl-1H-pyrrol-2-ylmethyl]-2H-pyridazin-3-one] | 7.00 | 4.07
10 | CCc1ccc(C(=O)c2c(C)cc(Cc3ccc(=O)[nH]n3)n2C)cc1 [Compound 36, 6-[1,4-dimethyl-5-(4-ethyl-benzoyl)-1H-pyrrol-2-ylmethyl]-2H-pyridazin-3-one] | 6.40 | 4.42
11 | Cn1c(Cc2ccc(=O)[nH]n2)ccc1C(=O)c1ccc(C2CC2)cc1 [Compound 42, 6-[5-(4-cyclopropyl-benzoyl)-1-methyl-1H-pyrrol-2-ylmethyl]-2H-pyridazin-3-one] | 6.14 | 4.09
12 | CSc1ccc(C(=O)c2ccc(Cc3ccc(=O)[nH]n3)n2C)cc1 [Compound 43, 6-[1-methyl-5-(4-methylthio-benzoyl)-1H-pyrrol-2-ylmethyl]-2H-pyridazin-3-one] | 6.52 | 4.64

The next lines start with the values.

Row | pIC50 (COX II) | pIC50 (COX I) | Compound
13 | 5.64 | 5.09 | 6-(5-benzoyl-3-chloro-4-methyl-1H-pyrrol-2-ylmethyl)-2H-pyridazin-3-one [Compound 89]
14 | 5.14 | < 4.00 | CCc1ccc(C(=O)c2ccc(Cc3ccc(=O)[nH]n3)n2C)cc1 [Compound 46, 6-[5-(4-ethyl-benzoyl)-1-methyl-1H-pyrrol-2-ylmethyl]-2H-pyridazin-3-one]
15 | 6.00 | 3.38 | COc1ccc(C(=O)c2ccc(Cc3ccc(=O)[nH]n3)n2C)cc1 [Compound 53, 6-[5-(4-methoxy-benzoyl)-1-methyl-1H-pyrrol-2-ylmethyl]-2H-pyridazin-3-one]
16 | 6.36 | 3.72 | C=Cc1ccc(C(=O)c2ccc(Cc3ccc(=O)[nH]n3)n2C)cc1 [Compound 54, 6-[1-methyl-5-(4-vinyl-benzoyl)-1H-pyrrol-2-ylmethyl]-2H-pyridazin-3-one]
17 | 5.34 | 3.15 | Cn1c(Cc2ccc(=O)[nH]n2)ccc1C(=O)c1ccc(Br)cc1 [Compound 57, 6-[5-(4-bromo-benzoyl)-1-methyl-1H-pyrrol-2-ylmethyl]-2H-pyridazin-3-one]
18 | 5.15 | 3.85 | Cn1c(Cc2ccc(=O)[nH]n2)ccc1C(=O)c1cccs1 [Compound 62, 6-[1-methyl-5-(thienyl-2-carbonyl)-1H-pyrrol-2-ylmethyl]-2H-pyridazin-3-one]
19 | 6.15 | ≤ 3.00 | Cc1ccc(C(=O)c2c(Cl)cc(Cc3ccc(=O)[nH]n3)n2C)cc1 [Compound 80, 6-[4-chloro-1-methyl-5-(4-methyl-benzoyl)-1H-pyrrol-2-ylmethyl]-2H-pyridazin-3-one]
20 | 6.36 | < 3.52 | Cn1c(Cc2ccc(=O)[nH]n2)cc(Cl)c1C(=O)c1ccc(Cl)cc1 [Compound 81, 6-[4-chloro-5-(4-chloro-benzoyl)-1-methyl-1H-pyrrol-2-ylmethyl]-2H-pyridazin-3-one]
21 | 6.09 | 4.69 | COc1ccc(C(=O)c2c(Cl)cc(Cc3ccc(=O)[nH]n3)n2C)cc1 [Compound 82, 6-[4-chloro-5-(4-methoxy-benzoyl)-1-methyl-1H-pyrrol-2-ylmethyl]-2H-pyridazin-3-one]
22 | 6.05 | < 3.00 | Cc1ccc(C(=O)c2cc(Cl)c(Cc3ccc(=O)[nH]n3)n2C)cc1 [Compound 87, 6-[3-chloro-1-methyl-5-(4-methyl-benzoyl)-1H-pyrrol-2-ylmethyl]-2H-pyridazin-3-one]
23 | 6.26 | 4.00 | COc1ccc(C(=O)c2cc(Cl)c(Cc3ccc(=O)[nH]n3)n2C)cc1 [Compound 88, 6-[3-chloro-5-(4-methoxy-benzoyl)-1-methyl-1H-pyrrol-2-ylmethyl]-2H-pyridazin-3-one]
24 | 5.89 | 3.85 | Cc1ccc(C(=O)c2ccc(C(C)c3ccc(=O)[nH]n3)n2C)cc1 (stereo not shown) [Compound 95, 6-{1-[1-methyl-5-(4-methyl-benzoyl)-1H-pyrrol-2-yl]-ethyl}-2H-pyridazin-3-one]
25 | 5.82 | 3.52 | Cc1ccc(C(=O)c2ccc(Cc3ccc(=O)[nH]n3)n2C)cc1 [Compound 100, 6-[1-methyl-5-(4-methyl-benzoyl)-1H-pyrrol-2-ylmethyl]-2H-pyridazin-3-one]
26 | 5.51 | 3.59 | Cc1ccc(C(=O)c2ccc(CC3=NNC(=O)CC3)n2C)cc1 [Compound 102, 6-[1-methyl-5-(4-methyl-benzoyl)-1H-pyrrol-2-ylmethyl]-4,5-dihydro-2H-pyridazin-3-one]
27 | 5.64 | 4.68 | CSc1cc(Cc2ccc(=O)[nH]n2)n(C)c1C(=O)c1ccc(C)cc1 [Compound 107, 6-(1-methyl-5-(4-methyl-benzoyl)-4-methylthio-1H-pyrrol-2-ylmethyl)-2H-pyridazin-3-one]
28 | 6.18 | 4.09 | CC(=O)n1nc(Cc2cc(C)c(C(=O)c3ccc(Cl)cc3)n2C)ccc1=O [Compound 114, 2-acetyl-6-[5-(4-chloro-benzoyl)-1,4,-dimethyl-1H-pyrrol-2-ylmethyl]-2H-pyridazin-3-one]
29 | 6.74 | 6.04 | COC(=O)Cn1nc(Cc2cc(C)c(C(=O)c3ccc(Cl)cc3)n2C)ccc1=O [Compound 116, {3-[5-(4-chloro-benzoyl)-1,4,-dimethyl-1H-pyrrol-2-ylmethyl]-6-oxo-6H-pyridazin-1-yl}-acetic acid methyl ester]
